Where “and” joins values, the source holds several entries; their conditions need not be identical. Equal values may be shown once.
Legend:
Format in all cases: biochemical
DPPH· scavenging = details: mean ± SD, n = 3
[1] = Fluorescent AGEs formation in a BSA-fructose/glucose system; details: for inhibition of fluorescent AGEs formation (BSA-抗糖化), single replicate: individual replicate; for inhibition of fluorescent AGEs formation (BSA-抗糖化), 平均 (mean): mean of 3 replicates; for IC50: mean ± SD, n = 3, read-out: BSA-glycation IC50
Method: Glycated protein was prepared in vitro by incubating BSA in the presence of D-glucose (GLC) and D-fructose (FRC). The DOF extract and specific standards were dissolved in DMSO:water (1:4). […] The assay was performed in triplicate, and AG was used as a positive control. The percentage inhibition of fluorescent AGE formation was calculated using the following equation: […] Where IF sample is fluorescence intensity in the presence of samples and BSA, IF sample control is fluorescence intensity in the presence of samples without BSA, IF control is fluorescence intensity without samples, and IF blank control is fluorescence intensity without samples and BSA.

[2] = FRAP total antioxidant capacity; details: lower part of sheet (compound series);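 note: colourimetric FRAP kit assay read as absorbance in 96-well plates, values as mM FeSO4 via standard curve, EC1 being sample concentration matching 1.0 mmol/L FeSO4, Trolox positive control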
COX-2 = biological target: T1, COX-2 (Homo sapiens, UniProt P35354); assay: Anti-COX-2 assay (COX-2 Inhibitor Screening Kit); details: for COX-2 inhibition: single replicates
T1 construct: purchased Beyotime S0168
T1 sequence (P35354 18-604): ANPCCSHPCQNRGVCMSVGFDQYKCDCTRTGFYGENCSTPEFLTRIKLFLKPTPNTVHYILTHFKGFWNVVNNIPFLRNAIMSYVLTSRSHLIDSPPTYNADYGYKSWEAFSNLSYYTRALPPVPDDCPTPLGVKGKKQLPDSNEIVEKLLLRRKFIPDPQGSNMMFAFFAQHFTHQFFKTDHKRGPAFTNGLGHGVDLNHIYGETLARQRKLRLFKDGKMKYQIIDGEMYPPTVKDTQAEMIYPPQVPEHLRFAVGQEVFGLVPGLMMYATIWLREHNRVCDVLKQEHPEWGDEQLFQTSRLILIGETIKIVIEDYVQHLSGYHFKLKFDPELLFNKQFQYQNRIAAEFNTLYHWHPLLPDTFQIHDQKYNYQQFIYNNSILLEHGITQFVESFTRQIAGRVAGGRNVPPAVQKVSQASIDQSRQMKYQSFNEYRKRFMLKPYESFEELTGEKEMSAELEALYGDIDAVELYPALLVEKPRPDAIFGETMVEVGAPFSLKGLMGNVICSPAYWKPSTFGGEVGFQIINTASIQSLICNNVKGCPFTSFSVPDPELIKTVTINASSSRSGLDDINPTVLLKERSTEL

[3] = ABTS·+ decolourisation capacity; details: mean ± SD, n = 3
Method: Fast colourimetric methods were slightly modified for the in vitro assessment of DPPH· scavenging ([19]), ABTS·+ decolourisation capacity ([20]), and total antioxidant capacity of FRAP ([21]). The stock solutions of derivatisation reagents were diluted as follows before measurement: DPPH was diluted with absolute ethanol until the absorbance was 0.8 ± 0.05 at λ = 517 nm. ABTS working solution was prepared with phosphate buffer (0.2 M, pH 7.4) to display absorbance of 0.8 ± 0.05 at λ = 729 nm, based on a previous study ([22]). The FRAP solution was prepared according to the instructions of the FRAP kit. Absorbances were measured using an automatic microplate reader (Molecular Group Ltd., USA), and all analyses were performed using 96-well plates. All measurements were performed in triplicate, and Trolox was used as a positive control.
For ABTS·+ decolourisation capacity, 100 μl of ABTS working solution was mixed with 200 μl of sample solution, and the absorbance was recorded after 10 min at 729 nm. Phosphate buffer (0.2 M, pH 7.4) was used as a negative control.
DPPH· and ABTS·+ radical scavenging activities of the tested sample were both calculated using the following formula:
% inhibition = (A control − A sample)/A control × 100
Where A control and A sample represent the absorbance of the control and test samples, respectively. The IC50 was calculated graphically from the dose-inhibition curves.

Question: For Kaempferol-3-O-rutinoside [compound 28], which IC50 (DPPH· scavenging) is on record?
Answer: Its IC50 is over 5000 µM.

Question: And the “inhibition of fluorescent AGEs formation (BSA-抗糖化), single replicate” value (“inhibition … single replicate” below) ([1]; 15.625 µM, listed as T12, 15.625 µM)?
Answer: Its value is -0.31% and 7.28% and -2.72%.

Question: And the “inhibition of fluorescent AGEs formation (BSA-抗糖化), 平均 (mean)” value (shortened to “inhibition … (mean)”) ([1]; 15.625 µM)?
Answer: The value was 1.41%.

Question: And the “inhibition … single replicate” value ([1]; 31.25 µM, listed as T12, 31.25 µM)?
Answer: Its value is 6.95% and 5.50% and 2.44%.

Question: And the “inhibition … (mean)” value ([1]; 31.25 µM)?
Answer: The value was 4.96%.

Question: What about the “inhibition … single replicate” value ([1]; 62.5 µM, listed as T12, 62.5 µM) of the same compound?
Answer: Its value is 13.47% and 13.89% and 14.50%.

Question: And the “inhibition … (mean)” value ([1]; 62.5 µM)?
Answer: The value was 13.95%.

Question: And the “inhibition … single replicate” value ([1]; 125 µM, listed as T12, 125 µM)?
Answer: The value was 22.45% and 28.29% and 22.60%.

Question: What about the “inhibition … (mean)” value ([1]; 125 µM) of the same compound?
Answer: The value was 24.45%.

Question: And the “inhibition … single replicate” value ([1]; 250 µM, listed as T12, 250 µM)?
Answer: The value was 38.13% and 38.77% and 37.66%.

Question: And the “inhibition … (mean)” value ([1]; 250 µM)?
Answer: The value was 38.19%.

Question: And the “inhibition … single replicate” value ([1]; 500 µM, listed as T12, 500 µM)?
Answer: Its value is 58.09% and 57.21% and 56.73%.

Question: What about the “inhibition … (mean)” value ([1]; 500 µM) of the same compound?
Answer: Its value is 57.34%.

Question: And the “inhibition … single replicate” value ([1]; 1000 µM, listed as T12, 1000 µM)?
Answer: Its value is 74.99% and 76.95% and 73.93%.

Question: And the “inhibition … (mean)” value ([1]; 1000 µM)?
Answer: The value was 75.29%.

Question: What about the “inhibition … single replicate” value ([1]; 2000 µM, listed as T12, 2000 µM) of the same compound?
Answer: Its value is 85.90% and 86.14% and 85.80%.

Question: And the “inhibition … (mean)” value ([1]; 2000 µM)?
Answer: Its value is 85.95%.

Question: What about the “inhibition … single replicate” value ([1]; 4000 µM (series head 'T9 4000µM', 2-fold dilutions), listed as T12) of the same compound?
Answer: Its value is 92.80% and 92.79% and 92.84%.

Question: What about the “inhibition … (mean)” value ([1]; 4000 µM) of the same compound?
Answer: The value was 92.81%.

Question: And the IC50 [1]?
Answer: The IC50 was 374 ± 18.1 µM.

Question: And the “FRAP EC1” value [2]?
Answer: The value was over 5000 µM.

Question: And the “COX-2 inhibition (in words)” value (COX-2)?
Answer: The value was “no inhibitory effects”.

Question: And the COX-2 inhibition (COX-2; 3.125 μM, listed as T12, 3.125 µM)?
Answer: The COX-2 inhibition was 24.76% and 3.80%.

Question: What about the COX-2 inhibition (COX-2; 6.25 μM, listed as T12, 6.25 µM) of the same compound?
Answer: Its COX-2 inhibition is 9.88% and 6.40% and 22.14%.

Question: What about the COX-2 inhibition (COX-2; 12.5 μM, listed as T12, 12.5 µM) of the same compound?
Answer: The COX-2 inhibition was -1.05% and 3.59% and 13.88%.

Question: And the COX-2 inhibition (COX-2; 25 μM, listed as T12, 25 µM)?
Answer: The COX-2 inhibition was -5.04% and -8.91% and 26.95%.

Question: What about the COX-2 inhibition (COX-2; 50 μM, listed as T12, 50 µM) of the same compound?
Answer: The COX-2 inhibition was -2.18% and -5.56% and 1.52%.

Question: What about the COX-2 inhibition (COX-2; 100 μM, listed as T12, 100 µM) of the same compound?
Answer: Its COX-2 inhibition is 7.51% and -46.40% and 2.25%.

Question: And the COX-2 inhibition (COX-2; 200 μM, listed as T12, 200 µM)?
Answer: The COX-2 inhibition was -9.13% and -25.75% and 1.42%.

Question: What about the IC50 [3] of the same compound?
Answer: The IC50 was 35.01 ± 0.22 µM.

Question: Which IC50 (DPPH· scavenging) does the source give for `O=c1cc(-c2ccc(O)cc2)oc2c(C3OCC(O)C(O)C3O)c(O)c(C3OC(CO)C(O)C(O)C3O)c(O)c12` (stereo not drawn) [compound 17, Schaftoside] here?
Answer: Its IC50 is over 5000 µM.

Question: And the IC50 [1]?
Answer: Its IC50 is 250 ± 4.16 µM.

Question: And the “FRAP EC1” value [2]?
Answer: Its value is over 5000 µM.

Question: What about the “COX-2 inhibition (in words)” value (COX-2) of the same compound?
Answer: The value was “no inhibitory effects”.

Question: And the COX-2 inhibition (COX-2; 31.25 μM, listed as T4, 31.25 µM)?
Answer: Its COX-2 inhibition is -26.58% and -23.72% and 26.46%.

Question: What about the COX-2 inhibition (COX-2; 62.5 μM, listed as T4, 62.5 µM) of the same compound?
Answer: Its COX-2 inhibition is -5.78% and -8.50% and -9.30%.

Question: And the COX-2 inhibition (COX-2; 125 μM, listed as T4, 125 µM)?
Answer: Its COX-2 inhibition is -21.60% and 2.72%.

Question: What about the COX-2 inhibition (COX-2; 250 μM, listed as T4, 250 µM) of the same compound?
Answer: The COX-2 inhibition was -34.33% and -33.14% and 20.94%.

Question: And the COX-2 inhibition (COX-2; 500 μM, listed as T4, 500 µM)?
Answer: Its COX-2 inhibition is -36.70% and -25.03% and -14.74%.

Question: And the COX-2 inhibition (COX-2; 1000 μM, listed as T4, 1000 µM)?
Answer: The COX-2 inhibition was -40.79% and -25.81% and -34.65%.

Question: And the COX-2 inhibition (COX-2; 2000 μM (2mM), listed as T4)?
Answer: Its COX-2 inhibition is -30.80% and -21.24% and -15.63%.

Question: What about the IC50 [3] of the same compound?
Answer: The IC50 was 75.6 ± 12.1 µM.
